Like-named read-outs stand apart in the source and are kept apart here.
Experiments:
[1] = test system: mouse GPCRs; assay: DAS-ELISA evaluation of coumarin derivatives on GPCRs (inhibition/activation); format: biochemical; settings: for EC50: concentration achieving 50% activation of the GPCRs' standard at 10 ng/L; for EC50 / IC50: mean of two independent experiments ± SD; for GPCRs-inhibitory activity (in words) / GPCR activation potency (in words): DAS-ELISA; for IC50: concentration achieving 50% inhibition of the GPCRs' standard at 10 ng/L; for IC50(nM) (% INHIBITION): % inhibition (inhibition rate): value in parentheses beside the > IC50 bound, daphnetin: at 10 ng/L; for EC50(nM) (% Activation): % Activation: value in parentheses beside the > EC50 bound
Procedure: All chemicals and reagents used in the study were commercially available and used as received. Thin-layer chromatography (TLC) and column chromatography (300–400 mesh) were achieved using instruments from Qingdao Makall Group Co., Ltd. (Qingdao, China). ^1H NMR and ^13C NMR spectra were recorded on a Bruker DRX-500 (^1H/^13C, 500 MHz/125 MHz) spectrometer (Bruker, Bremerhaven, Germany) or a JEOL 400YH (^1H/^13C, 400 MHz/100 MHz) and chemical shifts were given in δ with the TMS as an internal reference. The ESI-MS spectroscopy was measured on an Advantage Max LCQ Thermo-Finnigan mass spectrometer. The ELISA kit was purchased from Shanghai Fusheng Industry Co., Ltd. (Shanghai, China), and the standard in the kit was Class B GPCRs.
All the synthesized coumarin derivatives were dissolved in 500 μL of DMSO, and then diluted to 1 mL by distilled water to get 1 mg/mL of stock solution. Finally, the stock solution was diluted to 1000 μg/L, 10 μg/L, 0.1 μg/L, and 0.001 μg/L in turn and stored in a refrigerator at 4 ℃ for reserve.
The inhibitory/activation activities of all of the synthesized coumarin derivatives on GPCRs were evaluated through incubation using mouse GPCRs provided by the ELISA kit (Shanghai Fusheng Industrial Co., Ltd. Shanghai, China). Other components of the kit included a water solution (30 times concentrated), a HRP conjunction reagent, a sample diluent, a standard diluent, standard, a chromogenic reagent A, a chromogenic reagent B, and a stop solution.
The 15 μL of stock solution and 15 μL of diluted standard solution were thoroughly mixed and incubated at 37 ℃ for 10 mins to prepare a reaction solution. The assay was conducted according to the kit protocol, that is, by adding the 25 μL of reaction solution to a 96-well enzyme-labeled plate containing solid phase anti-GPCRs antibodies. Then the plate was incubated for 30 mins at 37 ℃. Then, 25 μL of Chromogener A and 25 μL of Chromogener B were then added to react. Finally, 25 μL of the termination solution was added to each well to terminate the reaction and the mixture was fully mixed. Derivatives were tested in four different concentrations: 10 ng/L, 1 ng/L, […], and 10 μg/L. A diluent was prepared, dissolved and diluted with the other components of the kit according to the instructions in the kit, and a termination solution was added to the reaction. Then, the OD value was obtained by a microplate reader in 15 mins. All the derivatives were set into two independent experimental groups, and the inhibition of GCPRs, which was expressed as a percentage, was based on these groups.
Inhibition rate = [OD(positive) − OD(test compound)]/[OD(positive) − OD(blank)] ∗ 100%.
IC50/EC50 were obtained from Modified Karber formula [66] as the following: lgρ=Xm−IP−3−Pm−Pn/4
ρ: Concentration of compounds; Xm: Maximum dose; I = (Minimum inhibition rate)/Adjacent dose.
P: Sum of inhibition rates; Pm: Maximum inhibition rate; Pn: Minimum inhibition rate.
All values are the mean of two independent experiments ± SD.

[2] = test system: mouse GPCRs; parameters: method as in PMID 33142412; settings: earlier work shown in Figure 2; cited from earlier work

Compound	EC50 [1]	IC50 [1]	other results
Cc1cc(=O)oc2cc(O)ccc12 [Derivative 9, 7-Hydroxy-4-methyl-2H-chromen-2-one]	1.25 ± 0.89 nM	1.25 nM	GPCRs-inhibitory activity (in words) [1]: no GPCRs-inhibitory activity
CCc1cc(=O)oc2c(O)c(O)ccc12 [Derivative 4, 4-Ethyl-7,8-dihydroxy-2H-chromen-2-one]	–	0.15 ± 0.01 nM	GPCR activation potency (in words) [1]: completely lost their GPCRs-activation potency
COc1cc(=O)oc2cc(O)ccc12 [Derivative 10, 7-Hydroxy-4-methoxy-2H-chromen-2-one]	–	> 48.5 nM	IC50(nM) (% INHIBITION): % inhibition (inhibition rate) [1]: 33.58%
CCC(=O)Oc1ccc2c(CCl)cc(=O)oc2c1OC(=O)CC [Derivative 8, 4-(Chloromethyl)-2-oxo-2H-chromene-7,8-diyl dipropionate]	–	6.86 ± 0.04 nM	GPCR activation potency (in words) [1]: no GPCR activation potency
CCCc1cc(=O)oc2c(O)c(O)ccc12 [Derivative 5, 7,8-Dihydroxy-4-propyl-2H-chromen-2-one]	–	3.77 ± 0.58 nM	GPCR activation potency (in words) [1]: completely lost their GPCRs-activation potency
Cc1c(C)c2ccc(O)cc2oc1=O [Derivative 12, 7-Hydroxy-3,4-dimethyl-2H-chromen-2-one]	1.07 ± 0.33 nM	–	–
O=c1cc(-c2ccccc2)c2ccc(O)c(O)c2o1 [Derivative 3, 7,8-Dihydroxy-4-phenyl-2H-chromen-2-one]	> 43.8 nM	–	EC50(nM) (% Activation): % Activation [1]: 35.75%
O=c1cc(-c2ccc(F)cc2)c2ccc(O)c(O)c2o1 [Derivative 1, 4-(4-Fluorophenyl)-7,8-dihydroxy-2 H-chromen-2-one]	0.56 ± 0.02 nM	–	–
O=c1cc(C(F)F)c2ccc(O)c(O)c2o1 [Derivative 2, 4-(Difluoromethyl)-7,8-dihydroxy-2H-chromen-2-one]	> 43.8 nM	–	EC50(nM) (% Activation): % Activation [1]: 39.82%
O=c1ccc2ccc(O)c(O)c2o1 [Daphnetin, daphnetin, reference compound]	–	> 10 nM	EC50 [2]: > 10 nM; Inhibition rate (in Figure 2) [2]: 49.43%; IC50(nM) (% INHIBITION): % inhibition (inhibition rate) [1]: 49.43%
CC(=O)Oc1ccc2c(CCl)cc(=O)oc2c1OC(C)=O [Derivative 7, 4-(Chloromethyl)-2-oxo-2H-chromene-7,8-diyl diacetate]	–	0.02 ± 0.01 nM	GPCR activation potency (in words) [1]: no GPCR activation potency
CCc1c(C)c2ccc(O)cc2oc1=O [Derivative 11, 3-Ethyl-7-hydroxy-4-methyl-2H-chromen-2-one]	1.28 ± 1.07 nM	–	–
Cc1cc(=O)oc2c(O)c(O)ccc12 [4a, reference compound]	2.65 ± 0.25 nM	–	–

Second part, led by results:

EC50 [1]	IC50 [1]	Compound	other results
0.03 ± 0.02 nM	–	Cc1c(C#N)c(=O)oc2cc(O)ccc12 [Derivative 17, 7-Hydroxy-4-methyl-2-oxo-2H-chromene-3-carbonitrile]	–
0.03 ± 0.01 nM	–	CCc1cc(=O)oc2cc(O)ccc12 [Derivative 18, 4-Ethyl-7-hydroxy-2H-chromen-2-one]	GPCRs-inhibitory activity (in words) [1]: no GPCRs-inhibitory activity
4.22 ± 3.49 nM	–	O=c1cc(CCl)c2ccc(O)cc2o1 [Derivative 19, 4-(Chloromethyl)-7-hydroxy-2H-chromen-2-one]	GPCRs-inhibitory activity (in words) [1]: no GPCRs-inhibitory activity
3.6 ± 0.11 nM	3.6 nM	Cc1c(Cc2ccccc2)c(=O)oc2cc(O)ccc12 [Derivative 15, 3-Benzyl-7-hydroxy-4-methyl-2H-chromen-2-one]	–
12 ± 9.47 nM	–	CCC(=O)Oc1ccc2c(C)c(Cc3ccccc3)c(=O)oc2c1 [Derivative 25, 3-Benzyl-4-methyl-2-oxo-2H-chromen-7-yl propionate]	–
–	0.76 ± 0.7 nM	4-Benzyl-7-ethoxy-4-methyl-2H-chromen-2-one [Derivative 23]	–
–	9.67 ± 2.59 nM	COc1ccc2c(C)c(Cc3ccccc3)c(=O)oc2c1 [Derivative 22, 3-Benzyl-7-methoxy-4-methyl-2H-chromen-2-one]	–
0.24 ± 0.21 nM	–	Cc1c(F)c(=O)oc2cc(O)ccc12 [Derivative 16, 3-Fluoro-7-hydroxy-4-methyl-2H-chromen-2-one]	–
> 42 nM	–	O=c1cc(-c2ccccc2)c2ccc(O)cc2o1 [Derivative 20, 7-Hydroxy-4-phenyl-2H-chromen-2-one]	EC50(nM) (% Activation): % Activation [1]: 34.41%
> 35.7 nM	–	CC(=O)Oc1ccc2c(C)c(Cc3ccccc3)c(=O)oc2c1 [Derivative 24, 3-Benzyl-4-methyl-2-oxo-2H-chromen-7-yl acetate]	EC50(nM) (% Activation): % Activation [1]: 32.82%
0.03 ± 0.02 nM	–	Cc1c(Cl)c(=O)oc2cc(O)ccc12 [Derivative 14, 3-Chloro-7-hydroxy-4-methyl-2H-chromen-2-one]	–
0.02 ± 0.01 nM	0.02 nM	Cc1cc(=O)oc2cc(Oc3ccnc(Cl)n3)ccc12 [Derivative 21, 7–((2–chloropyrimidin–4–yl)oxy)–4–methyl–2H–chromen–2–one]	–
–	7.75 ± 7.23 nM	O=c1cc(C(F)(F)F)c2ccc(O)cc2o1 [Derivative 13, 7-Hydroxy-4-(trifluoromethyl)-2H-chromen-2-one]	–
